This note sets out measurements from ChEMBL document CHEMBL1139948, “Design and synthesis of novel hydantoin-containing melanin-concentrating hormone receptor antagonists” (Bioorg Med Chem Lett, 2007).

pKi: −log10 of the molar value. Calls of active or inactive are those of the source. The rule behind the calls is not given here. Where only a bound is given, the exact number is not on record here.

For data set [1], the system named is Mus musculus. Put plainly: Antidepressant effect in mouse at 10 mg/kg, ip assessed as reduction in immobility duration after 30 mins by forced swimming test relative to control. The arrangement: scale not given: the % may be the effect or the level left. The format is functional. The note with it: route intraperitoneal.
Data set [2] deals with Melanin-concentrating hormone receptor 1 (Homo sapiens, UniProt Q99705). The experiment in a line: Displacement of [125I][Phe13, Tyr19]MCH from human recombinant MCHR1 expressed in CHO cells. It counts as cell-based.
For data set [3], the system named is Mus musculus. Put plainly: Reduction of cumulative food intake in over-night fasted mouse at 30 mg/kg, ip after 3 hrs relative to control. The conditions noted are these: route intraperitoneal. The format is functional. Also noted: scale not given: the % may be the effect or the level left.
The subject of data set [4] is Mus musculus. The experiment in a line: Reduction of cumulative food intake in over-night fasted mouse at 10 mg/kg, ip after 3 hrs relative to control. It counts as functional, organism-based. The arrangement: dose 10 mg/kg.
The target of data set [5] is 5-hydroxytryptamine receptor 2A (Homo sapiens, UniProt P28223). Put plainly: Binding affinity to 5HT2A receptor.
The target of data set [6] is T1, 5-hydroxytryptamine receptor 2C (Homo sapiens, UniProt P28335).
T1 sequence (P28335 whole entry): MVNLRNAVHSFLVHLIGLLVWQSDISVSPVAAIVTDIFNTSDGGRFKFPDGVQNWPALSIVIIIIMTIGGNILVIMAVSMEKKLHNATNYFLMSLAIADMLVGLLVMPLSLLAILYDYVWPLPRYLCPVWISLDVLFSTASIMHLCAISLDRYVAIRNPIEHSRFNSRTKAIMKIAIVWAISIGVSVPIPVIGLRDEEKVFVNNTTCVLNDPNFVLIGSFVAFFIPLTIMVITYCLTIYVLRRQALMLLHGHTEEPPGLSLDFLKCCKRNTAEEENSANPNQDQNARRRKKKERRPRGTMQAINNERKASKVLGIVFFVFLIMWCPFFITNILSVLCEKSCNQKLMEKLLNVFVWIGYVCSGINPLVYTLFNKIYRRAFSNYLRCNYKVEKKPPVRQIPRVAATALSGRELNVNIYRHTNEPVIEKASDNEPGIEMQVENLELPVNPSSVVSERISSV
Put plainly: Binding affinity to 5HT2C receptor.

Data set [7] addresses Melanin-concentrating hormone receptor 2 (Homo sapiens, UniProt Q969V1). Put plainly: Binding affinity to MCHR2.
The nature of data set [8]: Binding affinity to L-verapamil site of calcium channel. Also noted: species or system Homo sapiens.
Data set [9] can be described thus: Permeability across human Caco-2 cell membrane. The conditions noted are these: read-out: permeability. It counts as ADME, cell-based. (Caco-2 cells form a polarised layer with tight junctions and transporters.)
Data set [10] deals with Mus musculus. Put plainly: Antidepressant effect in mouse at 30 mg/kg, ip assessed as reduction in immobility duration after 30 mins by forced swimming test relative to control. It counts as functional. Also noted: scale not given: the % may be the effect or the level left. The note with it: route intraperitoneal.
A further data set has as its target hERG (KCNH2) (Homo sapiens, UniProt Q12809). The experiment in a line: Inhibition of hERG-mediated current amplitude at 1 uM. The format is toxicity. (hERG is a cardiac potassium channel; its block is linked to QT prolongation.)
Data set [11] has as its system Mus musculus. The experiment in a line: Toxicity in mouse at 10 to 100 mg/kg, ip by Irwins method. The format is organism-based. Also noted: dose 10-100 mg/kg, route intraperitoneal. The conditions noted are these: in vivo.
Data set [12] has as its target Muscarinic acetylcholine receptor M4 (Homo sapiens) (UniProt P08173). Put plainly: Binding affinity to muscarinic M4 receptor.

Sequence of Melanin-concentrating hormone receptor 1 (Q99705 whole entry): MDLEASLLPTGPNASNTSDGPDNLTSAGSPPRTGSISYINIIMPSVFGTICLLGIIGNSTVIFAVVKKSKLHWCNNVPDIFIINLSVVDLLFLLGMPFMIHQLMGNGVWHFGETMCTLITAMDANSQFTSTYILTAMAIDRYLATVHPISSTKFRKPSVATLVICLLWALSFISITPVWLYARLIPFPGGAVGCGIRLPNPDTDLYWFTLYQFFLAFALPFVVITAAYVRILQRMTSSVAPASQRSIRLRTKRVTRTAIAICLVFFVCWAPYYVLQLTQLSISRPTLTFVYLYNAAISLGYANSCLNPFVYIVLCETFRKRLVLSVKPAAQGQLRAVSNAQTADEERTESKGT
Sequence of 5-hydroxytryptamine receptor 2A (P28223 whole entry): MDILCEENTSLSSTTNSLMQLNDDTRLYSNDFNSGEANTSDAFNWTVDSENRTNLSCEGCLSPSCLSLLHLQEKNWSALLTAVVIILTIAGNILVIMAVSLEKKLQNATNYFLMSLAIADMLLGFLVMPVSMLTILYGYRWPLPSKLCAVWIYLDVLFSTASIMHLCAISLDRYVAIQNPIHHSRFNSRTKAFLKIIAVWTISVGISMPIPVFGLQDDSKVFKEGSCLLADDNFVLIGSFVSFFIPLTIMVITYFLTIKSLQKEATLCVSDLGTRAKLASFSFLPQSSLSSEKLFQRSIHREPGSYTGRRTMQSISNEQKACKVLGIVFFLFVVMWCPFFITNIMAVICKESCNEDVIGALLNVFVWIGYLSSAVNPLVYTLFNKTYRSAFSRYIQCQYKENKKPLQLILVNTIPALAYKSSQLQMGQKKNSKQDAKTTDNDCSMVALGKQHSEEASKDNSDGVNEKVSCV
Sequence of hERG (KCNH2) (Q12809 whole entry): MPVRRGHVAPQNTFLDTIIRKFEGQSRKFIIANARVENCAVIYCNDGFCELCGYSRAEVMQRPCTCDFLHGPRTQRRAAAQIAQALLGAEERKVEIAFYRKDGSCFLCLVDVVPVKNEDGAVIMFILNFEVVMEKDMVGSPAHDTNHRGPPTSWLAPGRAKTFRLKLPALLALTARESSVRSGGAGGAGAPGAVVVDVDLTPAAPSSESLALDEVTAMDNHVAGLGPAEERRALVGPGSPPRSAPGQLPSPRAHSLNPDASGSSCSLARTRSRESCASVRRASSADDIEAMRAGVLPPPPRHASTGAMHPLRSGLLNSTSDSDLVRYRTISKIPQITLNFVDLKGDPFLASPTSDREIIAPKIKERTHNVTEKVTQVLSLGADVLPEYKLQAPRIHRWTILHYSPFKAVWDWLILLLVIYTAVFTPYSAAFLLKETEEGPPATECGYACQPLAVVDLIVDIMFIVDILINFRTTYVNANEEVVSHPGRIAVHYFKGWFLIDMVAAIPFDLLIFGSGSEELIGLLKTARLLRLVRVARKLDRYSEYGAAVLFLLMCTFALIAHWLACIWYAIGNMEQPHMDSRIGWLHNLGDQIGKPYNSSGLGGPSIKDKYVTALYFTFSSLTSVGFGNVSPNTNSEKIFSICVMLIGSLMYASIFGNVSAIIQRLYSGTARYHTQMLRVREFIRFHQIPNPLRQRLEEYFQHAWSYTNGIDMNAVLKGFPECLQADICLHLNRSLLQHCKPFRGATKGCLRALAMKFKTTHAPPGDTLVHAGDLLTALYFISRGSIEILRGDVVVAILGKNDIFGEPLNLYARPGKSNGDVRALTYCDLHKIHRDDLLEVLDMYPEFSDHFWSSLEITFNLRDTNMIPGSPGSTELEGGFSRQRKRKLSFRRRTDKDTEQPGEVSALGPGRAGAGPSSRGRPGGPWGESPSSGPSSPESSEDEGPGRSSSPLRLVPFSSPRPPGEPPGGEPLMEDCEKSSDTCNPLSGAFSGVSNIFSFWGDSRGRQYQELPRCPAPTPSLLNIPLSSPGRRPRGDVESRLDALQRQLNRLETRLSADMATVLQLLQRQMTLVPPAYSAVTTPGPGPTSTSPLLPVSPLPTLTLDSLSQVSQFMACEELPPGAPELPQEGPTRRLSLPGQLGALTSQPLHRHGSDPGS
Sequence of Melanin-concentrating hormone receptor 2 (Q969V1 whole entry): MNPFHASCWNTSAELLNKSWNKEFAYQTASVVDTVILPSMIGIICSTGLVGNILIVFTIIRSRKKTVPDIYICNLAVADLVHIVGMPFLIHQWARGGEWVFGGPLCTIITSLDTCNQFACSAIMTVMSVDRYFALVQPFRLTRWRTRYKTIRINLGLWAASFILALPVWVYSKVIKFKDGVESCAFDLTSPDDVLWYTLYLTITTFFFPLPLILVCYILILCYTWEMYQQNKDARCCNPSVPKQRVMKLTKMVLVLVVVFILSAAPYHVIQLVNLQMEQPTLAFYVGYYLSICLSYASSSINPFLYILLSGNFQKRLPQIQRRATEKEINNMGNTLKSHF

`CN(C)CCCN1c2ccccc2CCc2ccccc21` [IMIPRAMINE]: in the data set on Mus musculus [1], the Activity was -58%.
For `O=C1N/C(=C\c2ccc(CN3CCN(c4ccccc4)CC3)cc2)C(=O)N1c1ccc(Oc2ccccc2)cc1`, in data set [2], the pKi is less than 5.30.
On to `O=C1N/C(=C\c2ccc(CN3CCC(O)C3)cc2)C(=O)N1c1ccc(Oc2ccccc2)cc1` (racemic), for which the negative logarithm of the Ki (pKi) in data set [2] was 6.75. Also, in the data set with Mus musculus [3], the Activity is 47%.
Turning to `CC(C)CC(N(C)C)C1(c2ccc(Cl)cc2)CCC1` (centres undefined), the result in the data set with Mus musculus [4] was Active.
In the case of `O=C1N/C(=C\c2ccc(CNCc3ccccc3)cc2)C(=O)N1c1ccc(Oc2ccccc2)cc1`, the negative logarithm of the Ki (pKi) in data set [2] was less than 5.30.
As for `COc1cc(NC(=O)c2ccc(Oc3ccccc3)cc2)ccc1OCCN1CCCC1`, the negative-log Ki (pKi) in data set [2] is 7.09.
With `O=C1N/C(=C\c2ccc(CN3CCCC3)cc2)C(=O)N1c1ccc(Oc2ccccc2)cc1`, the pKi is 6.66 in data set [2]; less than 5.30 in data set [5]; less than 5.00 in data set [6]; less than 5.00 in [7]; 6.48 in [8]. In addition, in data set [9], the Papp was greater than 6 ×10⁻⁶ cm/s. The Activity in the data set on Mus musculus [3] is recorded as 41%; with Mus musculus [10], -57%; in the data set with Mus musculus [11] it was “Non-toxic”. This molecule also registered an inhibition at 1 µM on hERG (KCNH2) of 73%.
With `CN(C)CC1CCc2cc(NC(=O)c3ccc(-c4ccc(F)cc4)cc3)ccc2C1` (centres undefined), in data set [2], the pKi was 7.42.
Still for that read-out and setting: the same measure for `COc1cc(NC(=O)Nc2ccc(-c3ccccc3)cc2)ccc1OCCN1CCCC1`: 6.59; for `O=C1N/C(=C\c2ccc(CNC3CCCC3)cc2)C(=O)N1c1ccc(Oc2ccccc2)cc1`: less than 5.30.
Still for that read-out and setting: the same measure for `O=C1N/C(=C\c2ccc(CN3CCN(Cc4ccccc4)CC3)cc2)C(=O)N1c1ccc(Oc2ccccc2)cc1`: less than 5.30; for `O=C1N/C(=C\c2ccc(CN3CCCCC3)cc2)C(=O)N1c1ccc(Oc2ccccc2)cc1`: less than 5.30.
For `CC(=O)N1CCN(Cc2ccc(/C=C3\NC(=O)N(c4ccc(Oc5ccccc5)cc4)C3=O)cc2)CC1`, the pKi in [2] is 5.69.
Regarding `COc1cc(N2CC(=O)N(c3ccc(Oc4ccccc4)cc3)C2=O)ccc1OCCN1CCCC1`, the pKi was 6.79 in [2], 6.48 in data set [5], 6.06 in data set [6] and 6.43 in data set [12]. Further, in the data set on Mus musculus [3], the Activity is 51%.
In the case of `O=C1N/C(=C\c2ccc(CN3CCCCCC3)cc2)C(=O)N1c1ccc(Oc2ccccc2)cc1`, the pKi in data set [2] was 6.45.
For `O=C1N/C(=C\c2ccc(CN3CCOCC3)cc2)C(=O)N1c1ccc(Oc2ccccc2)cc1`, the negative logarithm of the Ki (pKi) in data set [2] was less than 5.30.
Turning to `COc1cc(NC(=S)Nc2ccc(Oc3ccccc3)cc2)ccc1OCCN1CCCC1`, in [2], the pKi was 5.96.
The same measure, in the same setting: the same measure for `COc1cc(Nc2nc(-c3ccc(Oc4ccccc4)cc3)cs2)ccc1OCCN1CCCC1`: 6.00.
For the molecule `COc1cc(N2C(=O)CN(c3ccc(Oc4ccccc4)cc3)C2=O)ccc1OCCN1CCCC1`, the pKi in [2] is 6.44.
`COc1cc(N2C(=O)CN(c3ccc(-c4ccccc4)cc3)C2=O)ccc1OCCN1CCCC1`: the pKi in [2] was less than 5.30.
In the case of `CN(C)Cc1ccc(/C=C2\NC(=O)N(c3ccc(Oc4ccccc4)cc3)C2=O)cc1`, in data set [2], the pKi was 6.47.
Still for that read-out and setting: the same measure for `COc1cc(NC(=O)c2ccc(-c3ccccc3)cc2)ccc1OCCN1CCCC1`: 7.60.
On the same count and under the same terms, the same measure for `COc1cc(NC(=O)Nc2ccc(Oc3ccccc3)cc2)ccc1OCCN1CCCC1`: 7.00; for `CN(C)CCNCc1ccc(/C=C2\NC(=O)N(c3ccc(Oc4ccccc4)cc3)C2=O)cc1`: 6.15.
Regarding `COc1cc(N2CC(=O)N(c3ccc(-c4ccccc4)cc3)C2=O)ccc1OCCN1CCCC1`, the negative-log Ki (pKi) in data set [2] is 6.38.

For orientation: pKi means the Ki on a negative log10 scale, so that one unit is a factor of ten. As a reminder, the inhibition is the percentage by which the read-out fell short of the control.
